These results are taken from paper PMC3782002 (Journal of Chemical Information and Modeling, 2013).

Where a chain is given by its changes, count along the chain named.

Type in all cases: biochemical, B. subtilis
Data set [1] addresses T1, GR-N75L (Bacillus subtilis, UniProt P94556, N75L).
T1 sequence (P94556 1-272 N75L): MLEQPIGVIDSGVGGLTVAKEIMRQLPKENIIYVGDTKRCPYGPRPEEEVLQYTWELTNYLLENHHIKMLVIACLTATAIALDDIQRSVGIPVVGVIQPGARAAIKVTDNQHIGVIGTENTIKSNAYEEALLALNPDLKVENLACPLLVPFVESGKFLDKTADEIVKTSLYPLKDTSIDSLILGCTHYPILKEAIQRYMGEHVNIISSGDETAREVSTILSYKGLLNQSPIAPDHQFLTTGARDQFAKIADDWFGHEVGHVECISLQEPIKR
The data set is described as follows: Steady-state kinetics of D- to L- racemization by circular dichroism at 220 nm. A general note: Circular dichroism is the unequal absorption of left and right circularly polarised light.

Data set [2] addresses T2, GR-N75A (Bacillus subtilis, UniProt P94556, N75A).
T2 sequence (P94556 1-272 N75A): T1 sequence (P94556 1-272 N75L) with L75A
The description is as above.

Data set [3] addresses T2, GR-N75A. The data set is described as follows: Coupled-enzyme IC50 assay. Particulars: N75A mutation.
Data set [4] addresses T1, GR-N75L. The data set is described as follows: Coupled-enzyme IC50 assay. Particulars: N75L mutation.
Substrate in data set [5]: N[C@H](CCC(=O)O)C(=O)O
The data set is described as follows: Steady-state kinetics of D- to L- racemization by circular dichroism at 220 nm. Particulars: other: GR-WT, 25 °C, pH 8.0.

Usually kcat stands for the maximal rate divided by the concentration of active sites. The term Km denotes the substrate concentration at which the rate is half of its maximum. For the molecule `N[C@H](CCC(=O)O)C(=O)O` [Compound 3, D-glutamate], the values for the kcat in data set [1] and in data set [2] were 0.15 ± 0.01 s⁻¹ and 45.6 ± 1.9 s⁻¹, respectively. The Km in data set [1] (25 °C) came to 490 ± 100 µM; in data set [2] (25 °C), 730 ± 90 µM.

For the molecule `O=S(=O)(O)c1nc2ccccc2[nH]1` [Compound 1, 1H-benzimidazole-2-sulfonic acid], the “increase in IC50 compared to the IC50 for wild-type GR” value in data set [3] is given as 600%; in data set [4], 50%.

B1: GR-WT (Bacillus subtilis subsp. subtilis str. 168) (protein)
chain: T1 sequence (P94556 1-272 N75L) with L75N
By kcat/Km is commonly meant the turnover number divided by the Michaelis constant. As for B1, in data set [5], the catalytic constant (kcat) is 1.64 ± 0.03 s⁻¹ and the kcat/Km was determined as 12600 ± 80 M⁻¹ s⁻¹.
